ChEMBL document CHEMBL3393045, “Discovery of thienoimidazole-based HCV NS5A inhibitors. Part 2: non-symmetric inhibitors with potent activity against genotype 1a and 1b” (Bioorg Med Chem Lett, 2015)

Experiments:
[1] = (§1) Cmax in Sprague-Dawley rat at 3 mg/kg, po; assay type: ADME, organism-based; set-up: dose 3 mg/kg, route oral; details: Sprague-Dawley, in vivo
[2] = Oral bioavailability in Sprague-Dawley rat at 3 mg/kg; assay type: ADME, organism-based; details: in vivo
[3] = Half life in Sprague-Dawley rat at 3 mg/kg, iv; assay type: ADME, organism-based; set-up: dose 3 mg/kg, route intravenous; details: in vivo
[4] = Metabolic stability in rat liver microsomes assessed as remaining parent compound level at 5 uM after 30 mins in presence of NADPH and UDPGA; assay type: ADME; details: read-out: Stability
[5] = molecular target: Cytochrome P450 2C9 (Homo sapiens, UniProt P11712); assay: Inhibition of CYP2C9 (unknown origin); assay type: ADME
[6] = molecular target: Voltage-gated inwardly rectifying potassium channel KCNH2 (Homo sapiens, UniProt Q12809); assay: Inhibition of human ERG by Q-patch assay
[7] = molecular target: Cytochrome P450 2D6 (Homo sapiens, UniProt P10635); assay: Inhibition of CYP2D6 (unknown origin); assay type: ADME
[8] = system: Hepatitis C virus; assay: Antiviral activity against HCV genotype 1b infected in human Huh-5.2 cells assessed as decrease in HCV replicon RNA replication after 4 days by luciferase assay; assay type: functional, cell-based, Hepacivirus hominis; details: Huh-5-2, 96 h
[9] = Metabolic stability in human liver microsomes assessed as remaining parent compound level at 5 uM after 30 mins in presence of NADPH and UDPGA; assay type: ADME; details: read-out: Stability
[10] = system: Hepatitis C virus; assay: Antiviral activity against HCV genotype 1a infected in W11.8 cells assessed as decrease in NS5A expression in replicon cell after 4 days by luminescence based ELISA; assay type: functional, Hepacivirus hominis; details: subtype 1a, W11.8, 96 h
[11] = AUC (0 to 8 hrs) in Sprague-Dawley rat at 3 mg/kg, po; assay type: ADME, organism-based; set-up: time < 8 hr, dose 3 mg/kg, route oral; details: plasma
[12] = Clearance in Sprague-Dawley rat at 3 mg/kg, iv; assay type: ADME, organism-based; set-up: dose 3 mg/kg, route intravenous; details: in vivo
[13] = Volume of distribution at steady state in Sprague-Dawley rat at 3 mg/kg, iv; assay type: ADME, organism-based; set-up: dose 3 mg/kg, route intravenous; details: in vivo, read-out: Vdss
[14] = Cytotoxicity against human HuhET cells by [3H]thymidine incorporation assay; assay type: cell-based
[15] = molecular target: Cytochrome P450 3A4 (Homo sapiens, UniProt P08684); assay: Inhibition of CYP3A4 (unknown origin); assay type: ADME
[16] = Half life in Sprague-Dawley rat at 3 mg/kg, po; assay type: ADME, organism-based; set-up: dose 3 mg/kg, route oral; details: in vivo
[17] = system: Rattus norvegicus; assay: as §1; assay type: ADME, organism-based; set-up: dose 3 mg/kg, route oral; details: in vivo

Chain of Voltage-gated inwardly rectifying potassium channel KCNH2 (Q12809 whole entry): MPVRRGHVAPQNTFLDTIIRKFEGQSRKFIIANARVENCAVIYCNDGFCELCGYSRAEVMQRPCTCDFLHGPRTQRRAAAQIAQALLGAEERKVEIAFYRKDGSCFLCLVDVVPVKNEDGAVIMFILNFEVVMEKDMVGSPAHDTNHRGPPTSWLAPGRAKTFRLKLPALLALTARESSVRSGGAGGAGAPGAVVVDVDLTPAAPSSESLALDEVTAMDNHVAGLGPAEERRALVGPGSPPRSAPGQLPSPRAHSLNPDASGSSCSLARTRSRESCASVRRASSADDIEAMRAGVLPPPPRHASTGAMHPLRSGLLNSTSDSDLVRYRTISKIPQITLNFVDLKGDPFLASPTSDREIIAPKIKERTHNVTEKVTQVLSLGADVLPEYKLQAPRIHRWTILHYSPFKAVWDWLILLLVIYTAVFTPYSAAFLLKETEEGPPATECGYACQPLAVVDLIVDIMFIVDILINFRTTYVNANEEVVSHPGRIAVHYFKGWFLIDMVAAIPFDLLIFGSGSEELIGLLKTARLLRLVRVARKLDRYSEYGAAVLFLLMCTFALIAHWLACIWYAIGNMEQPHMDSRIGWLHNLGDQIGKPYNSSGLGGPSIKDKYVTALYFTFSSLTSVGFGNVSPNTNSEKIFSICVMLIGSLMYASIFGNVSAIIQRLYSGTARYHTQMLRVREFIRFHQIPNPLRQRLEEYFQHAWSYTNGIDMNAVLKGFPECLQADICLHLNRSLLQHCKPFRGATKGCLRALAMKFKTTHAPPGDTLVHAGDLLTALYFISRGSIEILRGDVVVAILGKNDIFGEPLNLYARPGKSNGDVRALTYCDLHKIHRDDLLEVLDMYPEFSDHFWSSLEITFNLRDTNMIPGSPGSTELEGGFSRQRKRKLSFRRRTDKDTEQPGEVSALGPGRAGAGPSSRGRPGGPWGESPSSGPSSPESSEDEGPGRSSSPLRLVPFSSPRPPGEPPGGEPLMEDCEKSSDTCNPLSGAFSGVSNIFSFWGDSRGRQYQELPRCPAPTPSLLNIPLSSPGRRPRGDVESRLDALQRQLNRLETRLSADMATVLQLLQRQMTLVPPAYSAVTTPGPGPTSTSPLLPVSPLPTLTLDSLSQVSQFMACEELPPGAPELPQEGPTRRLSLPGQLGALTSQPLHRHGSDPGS
Chain of Cytochrome P450 2C9 (P11712 whole entry): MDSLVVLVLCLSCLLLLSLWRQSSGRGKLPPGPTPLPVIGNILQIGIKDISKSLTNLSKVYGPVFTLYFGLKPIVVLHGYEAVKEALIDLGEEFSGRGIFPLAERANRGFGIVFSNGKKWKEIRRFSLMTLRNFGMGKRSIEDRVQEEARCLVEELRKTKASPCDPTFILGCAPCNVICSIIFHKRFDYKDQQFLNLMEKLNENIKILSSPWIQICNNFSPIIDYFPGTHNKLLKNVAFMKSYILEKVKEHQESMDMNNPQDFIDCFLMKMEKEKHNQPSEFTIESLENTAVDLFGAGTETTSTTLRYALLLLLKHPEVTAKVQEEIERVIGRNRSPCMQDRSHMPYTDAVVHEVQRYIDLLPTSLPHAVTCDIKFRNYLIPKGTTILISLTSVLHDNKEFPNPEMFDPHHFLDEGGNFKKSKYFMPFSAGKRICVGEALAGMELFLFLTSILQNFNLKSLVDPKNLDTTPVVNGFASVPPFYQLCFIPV
Chain of Cytochrome P450 3A4 (P08684 whole entry): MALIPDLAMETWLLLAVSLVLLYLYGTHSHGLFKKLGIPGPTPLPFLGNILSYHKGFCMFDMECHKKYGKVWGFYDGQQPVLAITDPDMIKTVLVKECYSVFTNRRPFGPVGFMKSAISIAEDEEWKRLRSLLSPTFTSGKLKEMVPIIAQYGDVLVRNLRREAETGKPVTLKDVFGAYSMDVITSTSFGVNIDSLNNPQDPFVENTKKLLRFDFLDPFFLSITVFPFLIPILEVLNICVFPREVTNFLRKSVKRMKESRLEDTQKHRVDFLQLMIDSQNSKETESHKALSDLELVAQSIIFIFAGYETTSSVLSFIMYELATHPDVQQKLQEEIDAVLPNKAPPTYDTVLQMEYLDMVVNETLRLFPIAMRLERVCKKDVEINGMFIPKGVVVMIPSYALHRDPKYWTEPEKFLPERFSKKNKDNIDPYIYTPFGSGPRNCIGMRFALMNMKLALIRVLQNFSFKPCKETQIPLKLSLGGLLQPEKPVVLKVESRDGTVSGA
Chain of Cytochrome P450 2D6 (P10635 whole entry): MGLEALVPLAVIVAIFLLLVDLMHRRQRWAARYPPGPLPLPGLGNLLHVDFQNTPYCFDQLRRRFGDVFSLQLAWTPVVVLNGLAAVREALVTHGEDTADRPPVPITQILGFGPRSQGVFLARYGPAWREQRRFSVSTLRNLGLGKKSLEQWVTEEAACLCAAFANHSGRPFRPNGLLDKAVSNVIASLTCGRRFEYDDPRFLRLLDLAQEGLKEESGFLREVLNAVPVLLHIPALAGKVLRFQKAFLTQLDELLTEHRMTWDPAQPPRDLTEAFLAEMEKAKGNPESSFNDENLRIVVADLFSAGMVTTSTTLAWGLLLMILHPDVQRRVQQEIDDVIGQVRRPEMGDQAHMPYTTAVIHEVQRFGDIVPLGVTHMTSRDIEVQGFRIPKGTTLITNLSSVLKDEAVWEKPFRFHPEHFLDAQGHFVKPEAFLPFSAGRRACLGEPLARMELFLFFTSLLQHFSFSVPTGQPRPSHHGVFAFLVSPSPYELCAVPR

| SMILES | EC50 [8] | EC50 [10] | CC50 [14] | other results |
| --- | --- | --- | --- | --- |
| COC(=O)N[C@H](C(=O)N1C[C@@H](C)C[C@H]1c1ncc(-c2ccc(-c3ccc(-c4cc5[nH]c([C@@H]6C[C@H](C)CN6C(=O)[C@@H](NC(=O)OC)C(C)C)nc5s4)s3)cc2)[nH]1)C(C)C | 0.004 nM | 0.017 nM | 13300 nM | Cmax [1]: 10 ng/mL; bioavailability [2]: 11%; half-life [3]: 6.7 h; remaining at 0.5 h, 5 µM [4]: 100%; IC50 [5]: 21000 nM; IC50 [6]: 25100 nM; IC50 [7]: > 30000 nM; remaining at 0.5 h, 5 µM [9]: 100%; AUC(0-t) at 8 h [11]: 440 ng·h/mL; clearance [12]: 6.9 mL/min/kg; Vd [13]: 3.8 L/kg; IC50 [15]: > 30000 nM; half-life [16]: 9.8 h |
| COC(=O)N[C@H](C(=O)N1C[C@@H](C)C[C@H]1c1ncc(-c2ccc(-c3ccc(-c4cc5[nH]c([C@@H]6C[C@H](C)CN6C(=O)[C@@H](NC(=O)OC)C(C)C)nc5s4)cc3C)cc2)[nH]1)C(C)C | 0.002 nM | 0.037 nM | 19200 nM | – |
| COC(=O)N[C@H](C(=O)N1CCC[C@H]1c1nc2cc(C#Cc3cc4[nH]c([C@@H]5CCCN5C(=O)[C@@H](NC(=O)OC)C(C)C)nc4s3)ccc2[nH]1)C(C)C | 0.215 nM | 828 nM | – | – |
| COC(=O)N[C@H](C(=O)N1C[C@@H](C)C[C@H]1c1ncc(-c2ccc(-c3ccc(-c4cc5[nH]c([C@@H]6C[C@H](C)CN6C(=O)[C@@H](NC(=O)OC)C(C)C)nc5s4)c(F)c3)cc2)[nH]1)C(C)C | 0.002 nM | 0.023 nM | > 20000 nM | – |
| COC(=O)N[C@H](C(=O)N1C[C@@H](C)C[C@H]1c1ncc(-c2ccc(-c3ccc(-c4cc5[nH]c([C@@H]6C[C@H](C)CN6C(=O)[C@@H](NC(=O)OC)C(C)C)nc5s4)cc3)cc2)[nH]1)C(C)C | – | – | > 20000 nM | Cmax [17]: 30 ng/mL; remaining at 0.5 h, 5 µM [4]: 100%; IC50 [5]: > 30000 nM; IC50 [6]: > 40000 nM; IC50 [7]: > 30000 nM; remaining at 0.5 h, 5 µM [9]: 90%; IC50 [15]: > 30000 nM |
| COC(=O)N[C@H](C(=O)N1C[C@@H](C)C[C@H]1c1nc2cc(C#Cc3cc4[nH]c([C@@H]5C[C@H](C)CN5C(=O)[C@@H](NC(=O)OC)C(C)C)nc4s3)ccc2[nH]1)C(C)C | 0.011 nM | 39 nM | – | – |
| COC(=O)N[C@H](C(=O)N1C[C@@H](C)C[C@H]1c1ncc(-c2ccc(-c3cc4sc(-c5cc6[nH]c([C@@H]7C[C@H](C)CN7C(=O)[C@@H](NC(=O)OC)C(C)C)nc6s5)cc4s3)cc2)[nH]1)C(C)C | 0.012 nM | 0.053 nM | > 20000 nM | – |
| COC(=O)N[C@H](C(=O)N1C[C@@H](C)C[C@H]1c1ncc(-c2ccc(-c3ccc(-c4cc5[nH]c([C@@H]6C[C@H](C)CN6C(=O)[C@@H](NC(=O)OC)C(C)C)nc5s4)cc3F)cc2)[nH]1)C(C)C | 0.006 nM | 0.023 nM | 20000 nM | – |

Continued, in another order:

| EC50 [8] | EC50 [10] | SMILES | CC50 [14] | other results |
| --- | --- | --- | --- | --- |
| 0.115 nM | 18 nM | COC(=O)N[C@H](C(=O)N1C[C@@H](C)C[C@H]1c1nc2sc(-c3ccc(-c4ccc5oc([C@@H]6C[C@H](C)CN6C(=O)[C@@H](NC(=O)OC)C(C)C)nc5c4)cc3)cc2[nH]1)C(C)C | > 20000 nM | – |
| 0.019 nM | 13 nM | COC(=O)N[C@H](C(=O)N1C[C@@H](C)C[C@H]1c1nc2sc(-c3ccc(-c4ccc5c(c4)nc([C@@H]4C[C@H](C)CN4C(=O)[C@@H](NC(=O)OC)C(C)C)n5C)cc3)cc2[nH]1)C(C)C | > 20000 nM | – |
| 0.041 nM | 0.3 nM | COC(=O)N[C@H](C(=O)N1C[C@@H](C)C[C@H]1c1cn2ccc(-c3ccc(-c4cc5[nH]c([C@@H]6C[C@H](C)CN6C(=O)[C@@H](NC(=O)OC)C(C)C)nc5s4)cc3)cc2n1)C(C)C | 15300 nM | – |
| 0.045 nM | 100 nM | COC(=O)N[C@H](C(=O)N1C[C@@H](C)C[C@H]1c1cc2cc(-c3ccc(-c4cc5[nH]c([C@@H]6C[C@H](C)CN6C(=O)[C@@H](NC(=O)OC)C(C)C)nc5s4)cc3)ccc2[nH]1)C(C)C | > 20000 nM | – |
| – | 0.6 nM | COC(=O)N[C@H](C(=O)N1C[C@@H](C)C[C@H]1c1nc2cc(-c3ccc(-c4cc5[nH]c([C@@H]6C[C@H](C)CN6C(=O)[C@@H](NC(=O)OC)C(C)C)nc5s4)cc3)ccc2[nH]1)C(C)C | > 20000 nM | – |
| 0.004 nM | 0.037 nM | COC(=O)N[C@H](C(=O)N1C[C@@H](C)C[C@H]1c1ncc(-c2ccc(-c3ccc(-c4cc5[nH]c([C@@H]6C[C@H](C)CN6C(=O)[C@@H](NC(=O)OC)C(C)C)nc5s4)c(C)c3)cc2)[nH]1)C(C)C | > 20000 nM | – |
